Read-outs that look alike come from different tables or passages of the source.
How the values were obtained:
C1b domain of human PKCδ = biological target: T1, C1b domain of human PKCδ (Homo sapiens, UniProt Q05655); experiment: Competitive 3H-PDBu binding to C1b domain of PKCδ; details: 3H-PDBu competition
T1 construct: Genes encoding C1b domains of human PKCα, δ, ε, θ, and PKD1 (PKCμ) were synthesized; made in house; host or cells: E. coli BL21(DE3)
Description: (§1) Compounds described in this disclosure were tested for binding affinity to C1b domain of PKC isoforms. Compound binding affinity to C1b domain of PKC isoforms was derived from competitive binding assay using radioactive tracer ^3H-PDBu and recombinant GST-C1b or full-length of human PKC proteins based on modified procedures from Methods in Molecular Biology, vol.
(§2) Genes encoding C1b domains of human PKCα, δ, ε, θ, and PKD1 (PKCμ) were synthesized and inserted into pGEX-2TK or pGEX-4T1 vectors for expression and production of GST-C1b proteins in E. coli BL21(DE3) via IPTG induction. The target proteins were purified by glutathione sepharose 4B and followed by ion exchange chromatography if needed to achieve purity >70%. Aliquots of the purified proteins were stored at −80 degree for binding assay (storage buffer: 20 mM Tris pH 8.0, 200 mM NaCl, 10% glycerol, 1 mM DTT).
(§3) The plate was incubated at 37° C. on a shaker at 300 rpm for 10 minutes and then put on ice for 20 minutes. […] The bottom of the filter plate was sealed and 50 μL of MicroScint-20 (PerkinElmer) cocktail was added to each well. ^3H-PDBu trapped in each well was counted using PerkinElmer MicroBeta2 Reader. Data were analyzed using GraphPad Prism5 with the model “log(inhibitor) vs. response-variable slope” to fit the IC50, and then IC50 was transformed to Ki using Cheng-Prusoff equation: Ki=IC50/(1+added radio ligand/Kd). Kd is the binding affinity of each protein preparation to ^3H-PDBu, determined experimentally.

[1] = test system: A549 non-small cell lung cancer cell line; experiment: Proliferation of A549 (CellTiter Glo); format: cell-based; details: read-out: IC50 μM (A549 Cell Line)
Description: The diterpenoid compounds were tested in A549, a non-small cell lung cancer cell line harboring a K-Ras activating mutation. Briefly, A549 cells at a density of 1,000 cells/well were seeded in 96-well plates and incubated at 37° C. for 24 hours. A series of different concentrations of compound stocks (500×) were prepared by 3-fold serial dilution in DMSO. These compounds were further diluted in culture media and then added to cells so that the final DMSO concentration was not exceeding 0.25%. After 96 hours of incubation, 50 μL of CellTiter Glo reagent (Promega) was added to each well and luminescence was measured after 10 minutes using EnVision (PerkinElmer). Luminescence from cells treated with DMSO alone was set as Max and % of inhibition was calculated as follows: Inhibition %=(Max−Sample value)/Max×100. Data was analyzed using XL-fit software (ID Business Solutions Ltd.) and IC50, relative IC50, and % of top inhibition was calculated. Some of the compounds in this disclosure were very potent in blocking proliferation of A549 lung cancer cells at low nM range. In addition, potency of inhibiting A549 proliferation correlated well with its binding affinity to PKCs for this series of compounds. In other words, higher affinity binders had stronger inhibitory effects on A549 proliferation. This further support the notion that activation, rather than inhibition, of certain PKC isoforms is required to block proliferation of cancer cells, some of which may harbor K-Ras mutations. This is in sharp contrast to previous literature and common belief that inhibition of PKC is necessary to block cancer cell growth (Kang, 2014, New Journal of Science, 2014:1-36). Data presented here is in agreement with recent findings that many loss-of-function but not gain-of-function mutations of PKC isoforms have been identified in many human cancers (Antal et al., 2015, Cell, 160:489-502).

[2] = biological target: T2, C1b domain of human PKD1 (PKCμ) (Homo sapiens, UniProt Q15139); experiment: biochemical; format: binding
T2 construct: Genes encoding C1b domains of human PKCα, δ, ε, θ, and PKD1 (PKCμ) were synthesized; made in house; host or cells: E. coli BL21(DE3)
T2 sequence (Q15139 270-320 limits assumed): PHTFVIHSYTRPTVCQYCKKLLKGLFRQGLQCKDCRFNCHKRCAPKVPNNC
Description: as §1, §2, §3

C1b domain of human PKCα = biological target: T3, C1b domain of human PKCα (Homo sapiens, UniProt P17252); experiment: biochemical; format: binding; details: 3H-PDBu competition
T3 construct: Genes encoding C1b domains of human PKCα, δ, ε, θ, and PKD1 (PKCμ) were synthesized; made in house; host or cells: E. coli BL21(DE3)
Description: as §1, §2
The plate was incubated at 37° C. on a shaker at 300 rpm for 10 minutes and then put on ice for 20 minutes. […] The bottom of the filter plate was sealed and 50 μL of MicroScint-20 (PerkinElmer) cocktail was added to each well. ^3H-PDBu trapped in each well was counted using PerkinElmer MicroBeta2 Reader. […] Kd is the binding affinity of each protein preparation to ^3H-PDBu, determined experimentally.

[3] = Homo sapiens, A549, 96 hours incubation, CellTiter Glo

T1 sequence (Q05655 230-280 limits assumed): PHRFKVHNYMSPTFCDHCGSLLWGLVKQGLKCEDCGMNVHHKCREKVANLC

Row | Structure (SMILES) | Ki (C1b domain of human PKCδ; Ki PKCδ) | IC50 ([1]; Homo sapiens, A549, 96 h) | Ki [2] | Ki (C1b domain of human PKCα; Ki PKCα) | also measured
1 | CC1=C[C@H]2[C@@]3(O)[C@H](C)C[C@]4(OC(=O)[C@H](N)CCCc5ccccc5)[C@H]([C@@H]3C=C(CO)C[C@]2(O)C1=O)C4(C)C [Compound K101-C1351] | 30 to 60 nM | 0.2 to 0.6 µM | 1 to 30 nM | 1000 to 2000 nM | 
2 | CC1=C[C@H]2[C@@]3(O)[C@H](C)C[C@]4(OC(=O)[C@H](O)Cc5ccccc5)[C@H]([C@@H]3C=C(CO)C[C@]2(O)C1=O)C4(C)C [Compound K101-C1355] | 100 to 200 nM | 2 to 5 µM | 30 to 60 nM |  | 
3 | CC1=C[C@H]2[C@@]3(O)[C@H](C)C[C@]4(OC(=O)[C@@H](N)CCS(C)(=O)=O)[C@H]([C@@H]3C=C(CO)C[C@]2(O)C1=O)C4(C)C [Compound K101-C1326] | 400 to 800 nM | > 30 µM | 200 to 400 nM | > 8000 nM | 
4 | CC1=C[C@H]2[C@@]3(O)[C@H](C)C[C@]4(OC(=O)CCCCCCCCCCCC(=O)O)[C@H]([C@@H]3C=C(CO)C[C@]2(O)C1=O)C4(C)C [Compound K101-C1335] | 200 to 400 nM | 10 to 30 µM |  | > 8000 nM | 
5 | CC1=C[C@H]2[C@@]3(O)[C@H](C)C[C@]4(OC(=O)[C@@H](N)C/C=C/c5ccccc5)[C@H]([C@@H]3C=C(CO)C[C@]2(O)C1=O)C4(C)C [Compound K101-C1331] |  |  |  |  | Ki (C1b domain of human PKCδ; read-out: Ki PKCδ): 5 to 10 nM; IC50 ([1]; A549, 96 hours incubation, CellTiter Glo): 0.06 to 0.1 µM; Ki ([2]; read-out: Ki PKD1/PKCμ): < 5 nM; Ki (C1b domain of human PKCα; read-out: Ki PKCα): 100 to 200 nM
6 | CC1=C[C@H]2[C@@]3(O)[C@H](C)C[C@]4(OC(=O)[C@H](N)CCc5ccc(C(F)(F)F)cc5)[C@H]([C@@H]3C=C(CO)C[C@]2(O)C1=O)C4(C)C [Compound K101-C135601] | 30 to 60 nM | 0.2 to 0.6 µM | 1 to 30 nM | 1000 to 2000 nM | 
7 | CSCC[C@H](N)C(=O)O[C@@]12C[C@@H](C)[C@@]3(O)[C@@H](C=C(CO)C[C@]4(O)C(=O)C(C)=C[C@@H]34)[C@@H]1C2(C)C [Compound K101-C1338] | 100 to 200 nM | 5 to 10 µM | 30 to 60 nM | 2000 to 4000 nM | 
8 | CC1=C[C@H]2[C@@]3(O)[C@H](C)C[C@]4(OC(=O)[C@@H](N)CC(C)(C)C)[C@H]([C@@H]3C=C(CO)C[C@]2(O)C1=O)C4(C)C [Compound K101-C1328] | 1 to 30 nM | 0.2 to 0.6 µM | < 5 nM | 200 to 400 nM | 
9 | CN[C@@H](CC1CCCCC1)C(=O)O[C@@]12C[C@@H](C)[C@@]3(O)[C@@H](C=C(CO)C[C@]4(O)C(=O)C(C)=C[C@@H]34)[C@@H]1C2(C)C [Compound K101-C1364] | 1 to 30 nM | 0.2 to 0.6 µM |  | 200 to 400 nM | 
10 | CC1=C[C@H]2[C@@]3(O)[C@H](C)C[C@]4(OC(=O)[C@H](N)C56CC(F)(C5)C6)[C@H]([C@@H]3C=C(CO)C[C@]2(O)C1=O)C4(C)C [Compound K101-C137301] |  |  |  |  | IC50 [1, 3]: 10 to 30 µM
11 | CC1=C[C@H]2[C@@]3(O)[C@H](C)C[C@]4(OC(=O)[C@@H](N)C56CC(C(F)(F)F)(C5)C6)[C@H]([C@@H]3C=C(CO)C[C@]2(O)C1=O)C4(C)C [Compound K101-C1375] |  |  |  |  | IC50 [1, 3]: 0.06 to 0.1 µM
12 | CSC[C@H](N)C(=O)O[C@@]12C[C@@H](C)[C@@]3(O)[C@@H](C=C(CO)C[C@]4(O)C(=O)C(C)=C[C@@H]34)[C@@H]1C2(C)C [Compound K101-C1339] | 200 to 400 nM | 5 to 10 µM |  | 4000 to 6000 nM | 
13 | CC1=C[C@H]2[C@@]3(O)[C@H](C)C[C@]4(OC(=O)[C@H](N)CCCCCCc5ccccc5)[C@H]([C@@H]3C=C(COC(=O)[C@@H](N)C(C)C)C[C@]2(O)C1=O)C4(C)C [K101-C134801C2003] |  |  |  |  | IC50 [1, 3]: 0.03 to 0.06 µM

— patent US20220411362A1, “DITERPENOID COMPOUNDS THAT ACT ON PROTEIN KINASE C (PKC)” (K-Gen, Inc., priority 2019, published 2022)
